# From patent US12686703B2, “Cosmetic tetrapeptide, composition and use” (Sederma, priority 2020, dated 2026)
# Marks after values point to notes of the source that are not given here. Where a SMILES comes first, the peptide text is derived from it. The star is where a group is joined. Palmitoyl = CCCCCCCCCCCCCCCC(=O)*
# Experiments:
# Type in all cases: cell-based
# [1] = test system: Outer Root Sheath Keratinocytes (ORSK); assay: Proliferation study (EdU) on outer root sheath keratinocytes; conditions: 5 ppm, p < 0.01
# Description: (§1) 2.1—Proliferation Studies on Cell Cultures (Hair Follicle Dermal Papilla Cells (HFDPC) and Outer Root Sheath Keratinocytes (ORSK))
# (§2) The cells are seeded in adapted culture media and incubated for 24 h. Then the culture media are removed and changed for test media and cells are incubated. The cells are thereafter contacted with the peptide (diluted at different concentrations in DMSO) and with EdU (Ethynyldeoxyuridine), a thymidine-analogue nucleoside which is incorporate into the newly synthetized in proliferating cells. The cultures are stopped, and cells are labelled using a Edu detection kit.
# Collagen I (PIP) = assay: ELISA assay of collagen I synthesis (PIP assay) in normal human fibroblasts; conditions: concentrations of 5 to 15 ppm; NHF, 72 h contact; vs excipient; p < 0.01
# Description: Normal human fibroblasts (NHF) in culture are brought into contact with the products to be tested or their excipient (negative control) for 72 h. At the end of the contact, the culture supernatants are removed, and the syntheses of the dermal macromolecules are estimated by ELISA assays. An estimate of cell viability is carried out by Hoechst assay to weight the obtained data.
# Collagen I is evaluated via the PIP assay (carboxy-terminal propeptide of procollagen type I) which is a peptide fragment resulting from the enzymatic degradation of procollagen when the latter is excreted outside the fibroblast (therefore in the culture medium where the assay is carried out).
# [2] = test system: Hair Follicle Dermal Papilla Cells (HFDPC); assay: Proliferation study (EdU) on hair follicle dermal papilla cells; conditions: p < 0.01
# Description: as §1, §2
# Fibrillin 1 = assay: Immunofluorescence assay of Fibrillin 1 formation in normal human fibroblasts; conditions: 8 ppm; NHF, five-day incubation; p < 0.05
# Description: Normal human fibroblasts (NHF) are cultured for at least 24 hours in fibroblast growth medium containing serum. Once confluence was reached, the cells are seeded, and the actives and corresponding controls diluted in a culture medium are added. At the end of a five-day incubation period, the supernatant is removed, the cells are washed with PBS and fixed. The cells are then incubated with the primary Fibrillin 1 monoclonal antibody (11C1.3) (Thermo Fisher) diluted in blocking buffer at a concentration of 1:200. The cells are incubated. The primary antibody is removed, and the cells are washed with PBS. The secondary antibody was added at a dilution of 1:1000 in blocking buffer, then removed and the cells are washed with PBS. The formation of Fibrillin 1 by the cells is visualized using a fluorescence microscope. The obtained images are analyzed using an image processing software assigning a numerical value to the coverage density.
# [3] = test system: whole hair follicles isolated from scalp explants; assay: Hair growth from hair follicle bulbs (isolated follicles in culture)
# Description: Whole follicles (including the infundibulum, upper sheath, bulge, lower sheath, and bulb) are isolated by microdissection from scalp explants issued from surgery. On first day (DO), the hairs are placed individually in wells and keep alive at 37° C. in a humid atmosphere, enriched with 5% CO2, in an adapted culture medium.
# Peptide solutions at 10 ppm and 5 ppm are prepared in the culture medium with 0.1% DMSO.
# On D0, D3, D5 and D7, the peptide products are incorporated into the culture medium. The culture media are completely renewed for each treatment. The control cases receive no treatment other than renewal of the culture medium.
# On day D0, the hairs are removed and stored frozen at −80° C. On D10, the hairs from each case are taken and treated in the same way.
# A photograph of the isolated hairs is taken on DO to measure the hair from the bulb to the end of the hair shaft using an image analysis software. The photographs and length measurements are repeated on D3, D5, D7 and D10. The growth of each hair is monitored individually.
# During the study, the hairs grow. To estimate the effect of the peptide, the average hair length between the peptide and the solvent control are compared, for each time (see below Table 5).
smiles,measurement,setting,value
"CCCCCCCCCCCCCCCC(=O)N[C@@H](CC(C)C)C(=O)N[C@@H](CC(C)C)C(=O)N[C@@H](C)C(=O)N[C@@H](CC(N)=O)C(=O)O [Pal-LLAN-OH, palmitoyl-leucyl-leucyl-alanyl-asparagine] (Palmitoyl-LLAN-OH)",Cell proliferation variation % vs. control solvent (DMSO),[1],+55%
same,Collagen I (PIP),Collagen I (PIP),+60%
same,Cell proliferation variation % vs. control solvent (DMSO),[2]; 5 ppm,+13.7%
same,Cell proliferation variation % vs. control solvent (DMSO),[2]; 10 ppm,+22.15%
same,Fibrillin 1,Fibrillin 1,+108% (p < 0.05)
same,Growth variation compared to solvent control (0.1% DMSO),"[3]; 5 ppm, D3, nsd",+21% (nsd)
same,Growth variation compared to solvent control (0.1% DMSO),"[3]; 5 ppm, D5, p < 0.05",+26%*
same,Growth variation compared to solvent control (0.1% DMSO),"[3]; 5 ppm, D7, p < 0.01",+32%**
same,Growth variation compared to solvent control (0.1% DMSO),"[3]; 5 ppm, D10, p < 0.01",+30%**
same,Growth variation compared to solvent control (0.1% DMSO),"[3]; 10 ppm, D3, nsd",+16% (nsd)
same,Growth variation compared to solvent control (0.1% DMSO),"[3]; 10 ppm, D5, p < 0.05",+28%*
same,Growth variation compared to solvent control (0.1% DMSO),"[3]; 10 ppm, D7, p < 0.01",+37%**
same,Growth variation compared to solvent control (0.1% DMSO),"[3]; 10 ppm, D10, p < 0.01",+38%**
